Test results as given in patent publication US20240050428A1 (Cullgen (Shanghai), Inc., priority 2020, published 2024).
Like-named read-outs stand apart in the source and are kept apart here.

What was measured:
[1] = tested on: MV4;11 cells; assay: Cell viability assay (CellTiter-Glo) in MV4;11 cells, alone or with gilteritinib; type: cell-based; settings: Homo sapiens, read-out: MV4
[2] = tested on: MOLM-13 cells; assay: Cell viability assay (CellTiter-Glo) in MOLM-13 cells, alone or with gilteritinib; type: cell-based; settings: Homo sapiens
[3] = MV4-11, 72 h, MV4;11 cells, compound alone (without gilteritinib), three days, CellTiter-Glo, 11 IC50
[4] = MV4-11, 72 h, MV4;11 cells, compound with gilteritinib 10 nM, three days, CellTiter-Glo, 11 IC50 gilteritinib
[5] = MOLM-13, 72 h, MOLM-13 cells, compound alone (without gilteritinib), three days, CellTiter-Glo, read-out: MOLM-13 IC50
[6] = MOLM-13, 72 h, MOLM-13 cells, compound with gilteritinib 20 nM, three days, CellTiter-Glo, read-out: MOLM-13 IC50 gilteritinib
[7] = 72 h, MV4;11 cells, compound alone (without gilteritinib), three days, CellTiter-Glo, 11 IC50
[8] = 72 h, MV4;11 cells, compound with gilteritinib 10 nM, three days, CellTiter-Glo, 11 IC50 gilteritinib
[9] = 72 h, MOLM-13 cells, compound alone (without gilteritinib), three days, CellTiter-Glo, read-out: MOLM-13 IC50
[10] = 72 h, MOLM-13 cells, compound with gilteritinib 20 nM, three days, CellTiter-Glo, read-out: MOLM-13 IC50 gilteritinib

Work on `Cc1cncc(-c2cnn(CCCCCCNc3ccc4c(c3)C(=O)N(C3CCC(=O)NC3=O)C4=O)c2)c1` (stereo not drawn) [GS-499, 2-(2,6-dioxopiperidin-3-yl)-5-((6-(4-(5-methylpyridin-3-yl)-1H-pyrazol-1-yl)hexyl)amino)isoindoline-1,3-dione] yielded an IC50 [1, 3] of over 1000 nM, an IC50 [1, 4] of 100 to 1000 nM and an IC50 [2, 5] of over 1000 nM. The IC50 [2, 6] was 100 to 1000 nM.
`O=C1CCC(N2Cc3cc(NC(=O)C(F)(F)c4cccc(N5CCC(n6cc(-c7cnc8ccccc8n7)cn6)CC5)c4)ccc3C2=O)C(=O)N1` (stereo not drawn) [GS-500, N-(2-(2,6-dioxopiperidin-3-yl)-1-oxoisoindolin-5-yl)-2,2-difluoro-2-(3-(4-(4-(quinoxalin-2-yl)-1H-pyrazol-1-yl)piperidin-1-yl)phenyl)acetamide] showed an IC50 [1, 3] of under 10 nM, an IC50 [1, 4] of under 10 nM and an IC50 [2, 5] of under 10 nM. For the same compound, the IC50 [2, 6] was under 10 nM.
In the case of `O=C1CCC(N2Cc3cc(NC(=O)Cc4cccc(N5CCC(c6ccccc6)CC5)c4)ccc3C2=O)C(=O)N1` (stereo not drawn) [GS-501, N-(2-(2,6-Dioxopiperidin-3-yl)-1-oxoisoindolin-5-yl)-2-(3-(4-phenylpiperidin-1-yl)phenyl)acetamide], the IC50 [1, 7] is reported as under 10 nM, the IC50 [1, 8] is reported as under 10 nM and the IC50 [2, 9] is reported as under 10 nM. For the same compound, the IC50 [2, 10] was under 10 nM.
Work on `Cc1nc2ccccc2nc1-c1cnn(CCCCCCNc2ccc3c(c2)C(=O)N(C2CCC(=O)NC2=O)C3=O)c1` (stereo not drawn) [GS-502, 2-(2,6-Dioxopiperidin-3-yl)-5-((6-(4-(3-methylquinoxalin-2-yl)-1H-pyrazol-1-yl)hexyl)amino)isoindoline-1,3-dionee] yielded an IC50 [1, 3] of 100 to 1000 nM, an IC50 [1, 4] of 10 to 100 nM and an IC50 [2, 5] of 100 to 1000 nM. It also gave an IC50 [2, 6] of 10 to 100 nM.
For `O=C1CCC(N2C(=O)c3ccc(NCCCCCCn4cc(-c5cnc6ccc(Br)cc6n5)cn4)cc3C2=O)C(=O)N1` (stereo not drawn) [GS-503, 5-((6-(4-(7-Bromoquinoxalin-2-yl)-1H-pyrazol-1-yl)hexyl)amino)-2-(2,6-dioxopiperidin-3-yl)isoindoline-1,3-dione], the IC50 [1, 3] was 10 to 100 nM, the IC50 [1, 4] was under 10 nM and the IC50 [2, 5] was 100 to 1000 nM. It also gave an IC50 [2, 6] of 10 to 100 nM.
`O=C1CCC(N2C(=O)c3ccc(NCCCc4cccc(N5CCC(c6ccccc6)CC5)c4)cc3C2=O)C(=O)N1` (stereo not drawn) [GS-504, 2-(2,6-Dioxopiperidin-3-yl)-5-((3-(3-(4-phenylpiperidin-1-yl)phenyl)propyl)amino)isoindoline-1,3-dione] gave an IC50 [1, 7] of 100 to 1000 nM, an IC50 [1, 8] of 10 to 100 nM and an IC50 [2, 9] of 100 to 1000 nM. It also gave an IC50 [2, 10] of 10 to 100 nM.
Compound `O=C1CCC(N2C(=O)c3ccc(NCCCc4cc(F)cc(N5CCC(c6ccccc6)CC5)c4)cc3C2=O)C(=O)N1` (stereo not drawn) [GS-505, 2-(2,6-Dioxopiperidin-3-yl)-5-((3-(3-fluoro-5-(4-phenylpiperidin-1-yl)phenyl)propyl)amino)isoindoline-1,3-dione] has an IC50 [1, 7] of 10 to 100 nM, an IC50 [1, 8] of 10 to 100 nM and an IC50 [2, 9] of 10 to 100 nM. It also gave an IC50 [2, 10] of under 10 nM.
For `O=C1CCC(N2C(=O)c3ccc(NCCCc4ccc(F)c(N5CCC(c6ccccc6)CC5)c4)cc3C2=O)C(=O)N1` (stereo not drawn) [GS-506, 2-(2,6-Dioxopiperidin-3-yl)-5-((3-(4-fluoro-3-(4-phenylpiperidin-1-yl)phenyl)propyl)amino)isoindoline-1,3-dione], the IC50 [1, 7] was over 1000 nM, the IC50 [1, 8] was over 1000 nM and the IC50 [2, 9] was over 1000 nM. It also gave an IC50 [2, 10] of 100 to 1000 nM.
`O=C1CCC(N2C(=O)c3ccc(NCCCc4cccc(N5CCC(c6ccccc6)CC5)c4F)cc3C2=O)C(=O)N1` (stereo not drawn) [GS-507, 2-(2,6-Dioxopiperidin-3-yl)-5-((3-(2-fluoro-3-(4-phenylpiperidin-1-yl)phenyl)propyl)amino)isoindoline-1,3-dione] was tested, and the IC50 [1, 7] was over 1000 nM, the IC50 [1, 8] was 100 to 1000 nM and the IC50 [2, 9] was over 1000 nM. For the same compound, the IC50 [2, 10] was 10 to 100 nM.
With `O=C1CCC(N2Cc3c(CNC(=O)c4cccc(N5CCC(n6cc(-c7cnc8ccccc8n7)cn6)CC5)c4)cccc3C2=O)C(=O)N1` (stereo not drawn) [GS-509, N-((2-(2,6-Dioxopiperidin-3-yl)-1-oxoisoindolin-4-yl)methyl)-3-(4-(4-(quinoxalin-2-yl)-1H-pyrazol-1-yl)piperidin-1-yl)benzamide] the IC50 ([1]; MV4-11, 72 h, 11 IC50) was under 10 nM, the IC50 ([1]; MV4-11, 72 h, 11 IC50 gilteritinib) was under 10 nM and the IC50 ([2]; MOLM-13, 72 h, read-out: MOLM-13 IC50) was under 10 nM. It also gave an IC50 ([2]; MOLM-13, 72 h, read-out: MOLM-13 IC50 gilteritinib) of under 10 nM.
For `Cc1nn(CCCCCCNc2ccc3c(c2)C(=O)N(C2CCC(=O)NC2=O)C3=O)c(C)c1-c1cnc2ccccc2n1` (stereo not drawn) [GS-510, 5-((6-(3,5-Dimethyl-4-(quinoxalin-2-yl)-1H-pyrazol-1-yl)hexyl)amino)-2-(2,6-dioxopiperidin-3-yl)isoindoline-1,3-dione], the IC50 [1, 3] was 100 to 1000 nM, the IC50 [1, 4] was under 10 nM and the IC50 [2, 5] was over 1000 nM. It also gave an IC50 [2, 6] of under 10 nM.
`Cc1cccc2ncc(-c3cnn(CCCCCCNc4ccc5c(c4)C(=O)N(C4CCC(=O)NC4=O)C5=O)c3)nc12` (stereo not drawn) [GS-511, 2-(2,6-Dioxopiperidin-3-yl)-5-((6-(4-(8-methylquinoxalin-2-yl)-1H-pyrazol-1-yl)hexyl)amino)isoindoline-1,3-dione] gave an IC50 [1, 3] of 100 to 1000 nM, an IC50 [1, 4] of 10 to 100 nM and an IC50 [2, 5] of 100 to 1000 nM. The IC50 [2, 6] was under 10 nM.
`Cc1cccc2nc(-c3cnn(CCCCCCNc4ccc5c(c4)C(=O)N(C4CCC(=O)NC4=O)C5=O)c3)cnc12` (stereo not drawn) [GS-512, 2-(2,6-dioxopiperidin-3-yl)-5-((6-(4-(5-methylquinoxalin-2-yl)-1H-pyrazol-1-yl)hexyl)amino)isoindoline-1,3-dione] gave an IC50 [1, 3] of 10 to 100 nM, an IC50 [1, 4] of 10 to 100 nM and an IC50 [2, 5] of 10 to 100 nM. It also gave an IC50 [2, 6] of under 10 nM.
Compound `O=C1CCC(N2Cc3cc(NC(=O)c4cccc(N5CCC(n6cc(-c7cnc8ccccc8n7)cn6)CC5)c4)ccc3C2=O)C(=O)N1` (stereo not drawn) [GS-513, N-(2-(2,6-Dioxopiperidin-3-yl)-1-oxoisoindolin-5-yl)-3-(4-(4-(quinoxalin-2-yl)-1H-pyrazol-1-yl)piperidin-1-yl)benzamide] has an IC50 [1, 3] of under 10 nM, an IC50 [1, 4] of under 10 nM and an IC50 [2, 5] of under 10 nM. It also gave an IC50 [2, 6] of under 10 nM.
`O=C1CCC(N2Cc3cc(CNC(=O)Nc4cccc(N5CCC(c6ccccc6)CC5)c4)ccc3C2=O)C(=O)N1` (stereo not drawn) [GS-514, 1-((2-(2,6-Dioxopiperidin-3-yl)-1-oxoisoindolin-5-yl)methyl)-3-(3-(4-phenylpiperidin-1-yl)phenyl)urea] was tested, and the IC50 [1, 7] was under 10 nM, the IC50 [1, 8] was under 10 nM and the IC50 [2, 9] was under 10 nM. It also gave an IC50 [2, 10] of under 10 nM.
`O=C1CCC(N2Cc3cc(NCCCCC(=O)N4CCC(n5cc(-c6cnc7ccccc7n6)cn5)CC4)ccc3C2=O)C(=O)N1` (stereo not drawn) [GS-515, 3-(1-Oxo-5-((5-oxo-5-(4-(4-(quinoxalin-2-yl)-1H-pyrazol-1-yl)piperidin-1-yl)pentyl)amino)isoindolin-2-yl)piperidine-2,6-dione] gave an IC50 [1, 3] of over 1000 nM, an IC50 [1, 4] of 10 to 100 nM and an IC50 [2, 5] of over 1000 nM. It also gave an IC50 [2, 6] of 100 to 1000 nM.
Compound `Cc1ccccc1-c1cnn(CCCCCCNc2ccc3c(c2)C(=O)N(C2CCC(=O)NC2=O)C3=O)c1` (stereo not drawn) [GS-516, 2-(2,6-Dioxopiperidin-3-yl)-5-((6-(4-(o-tolyl)-1H-pyrazol-1-yl)hexyl)amino)isoindoline-1,3-dione] has an IC50 [1, 3] of 100 to 1000 nM, an IC50 [1, 4] of 10 to 100 nM and an IC50 [2, 5] of over 1000 nM. It also gave an IC50 [2, 6] of 10 to 100 nM.
With `O=C1CCC(N2C(=O)c3ccc(NCCCCCCn4cc(-c5cnc6cc(Br)ccc6n5)cn4)cc3C2=O)C(=O)N1` (stereo not drawn) [GS-517, 5-((6-(4-(6-Bromoquinoxalin-2-yl)-1H-pyrazol-1-yl)hexyl)amino)-2-(2,6-dioxopiperidin-3-yl)isoindoline-1,3-dione] the IC50 [1, 3] was 100 to 1000 nM, the IC50 [1, 4] was 10 to 100 nM and the IC50 [2, 5] was 100 to 1000 nM. For the same compound, the IC50 [2, 6] was 10 to 100 nM.
